The subject of series [1] is BLECs. As to the kind of experiment: Effect of cytokines on Aβ1–40Cy5 transcytosis quotient across BLECs. It is filed as cell-based, human. Particulars: cytokine 10 ng·mL^−1 basolateral, 24 h; then 30 min transport at 37 °C; compared to control. How it is done:
As TNF-α and IL-1β modulated the protein expression levels of LRP1, BCRP and PICALM (Figure 4), we investigated the effect of these cytokines on the transport of Aβ peptide across the BBB. After 24 h of treatment with proinflammatory cytokines, the apical-to-basolateral (influx) and basolateral-to-apical (efflux) Aβ1–40Cy5 peptide transports across the BLECs were assessed in the presence of FITC-inulin. The Aβ1–40 peptide was used in all experiments, as it is the most abundant amyloid peptide found on cerebral blood vessels. FITC-inulin was used to determine the nonspecific transcytosis quotient (Figure 5A). Indeed, unlike Aβ peptide, FITC-inulin is not actively cleared at the BBB and acts as a reference marker of paracellular permeability, thus as previously reported.
Each condition was studied in triplicate.
After proinflammatory cytokine treatments, the influx (apical-to-basolateral) and the efflux (basolateral-to-apical) transport of Aβ1–40 peptides across BLECs were investigated as previously described. Briefly, for influx studies, inserts with BLECs were transferred to new 12-well plates containing 1.5 mL of RH–HSA 0.1% (the receiver solution) per well. In the insert, 0.5 mL of RH-HSA 0.1% supplemented with 10 nM Aβ1–40Cy5 peptide were added (the donor solution). For efflux studies, inserts with BLECs were transferred to new 12-well plates, this time containing 1.5 mL of RH-has 0.1% with 10 nM fluorescent Aβ1–40Cy5 (the donor solution) peptide, then 0.5 mL of RH-HSA 0.1% (the receiver solution) was added in the insert. […] The BBB integrity was determined by measuring the endothelial permeability of a radioactive integrity marker, ^14C-sucrose, using the same method of calculation as described in Section 4.4. […] At the end of the experiment, aliquots of the receiver and donor solutions were collected, and the fluorescence compounds (Aβ1–40Cy5 peptide and FITC-inulin) were quantified with a spectrofluorimeter (Synergy H1, Biotek, Colmar, France). The radioactivity of ^14C-saccharose was measured using a scintillation counter (Hidex 300 SL, Hidex, Turku, Finland). The apparent permeability coefficients (cm.sec^−1) of Aβ1–40Cy5 peptide and FITC-inulin were calculated as previously described. Once influx and efflux Papp were determined for each molecule, the specific transport of Aβ1–40Cy5 across the BLECs in influx and efflux directions were identified by calculating the transcytosis quotient of Aβ1–40Cy5 using the following formulas: “influx transcytosis quotient of Aβ1–40Cy5 = (influx Aβ1–40Cy5 Papp)/(influx FITC-inulin Papp)” or “efflux transcytosis quotient of Aβ1–40Cy5 = (efflux Aβ1–40Cy5 Papp)/(efflux FITC-inulin Papp)”. For each filter, the mass balance was determined as described in Section 4.4. […]

Series [2] relates to BLECs. Particulars: MTT assay; 10 ng·mL^−1, 24 h, abluminal compartment. The procedure: An MTT assay was performed as a preliminary test to determine their effect on BLEC viability and to validate the chosen concentrations. Dimethyl sulfoxide (DMSO) at 10% (v/v) was used as a positive control of cell toxicity.
After 6 days of coculture, TNF-α or IL-1β were added to the basolateral compartment (brain side) at 10 ng·mL^−1 for 24 h, at 37 °C and 5% CO2, to mimic CNS inflammation condition. Each condition was studied in triplicate.
The standard MTT [3-(4,5-dimethylthiazol-2-yl)-2,5-diphenyltetrazolium bromide] assay (AR1156, Boster Biological Technology, Pleasanton, CA, USA) was performed to determine BLEC viability. Briefly, after coculture treatments, culture medium was removed and replaced with worm Ringer-Hepes (RH; 150 mM NaCl, 5.2 mM KCl, 2.2 mM CaCl2, 0.2 mM MgCl2–6H2O, 6 mM NaHCO3, 5 mM HEPES, 2.8 mM glucose; pH: 7.4) in basolateral compartment and with MTT solution (0.5 mg·mL^−1) in RH at in the opposite compartment for 3 h at 37 °C and 5% CO2. […] Aliquot was sampled in 96-well plate and the optical density (OD) was measured with a microplate reader (Synergy H1, BioTek. Colmar, France) at the wavelength of 570 and 630 nm. The percentage of relative cell viability compared to the control condition was subsequently determined using the following formula: % relative cell viability = ((OD570 − OD630) condition)/((OD570 – OD630)control) × 100.
On the technique in general: Tetrazolium assays rely on reduction of a dye to a coloured formazan, in cell work by metabolically active cells.

Take interleukin-1β [IL-1β]: in series [1], the “apical-to-basolateral transcytosis quotient (specific influx) of Aβ1–40Cy5 peptide” value is “not modified” and the “reduction of basolateral-to-apical transcytosis quotient (specific efflux) of Aβ1–40Cy5 peptide” value is 25.9%. Moreover, the “effect on BLEC viability” value in series [2] is “did not affect BLEC viability”.

As to tumor necrosis factor-α [TNF-α], in series [1], the “apical-to-basolateral transcytosis quotient (specific influx) of Aβ1–40Cy5 peptide” value is listed as “not modified” and the “reduction of basolateral-to-apical transcytosis quotient (specific efflux) of Aβ1–40Cy5 peptide” value was found to be 26.9%.

Source of the values: publication PMC9499506, “TNF-α and IL-1β Modulate Blood-Brain Barrier Permeability and Decrease Amyloid-β Peptide Efflux in a Human Blood-Brain Barrier Model” (International Journal of Molecular Sciences, 2022).
